Where no end group is shown, it is not given here. [ ]: non-standard residue; d: D form. Aib = CC(C)(N)C(=O)O

In the assay the test system is db/db mice. In words: Blood glucose lowering in db/db mice (Example 7). As to conditions: db/db male mice, 30 nmol/kg subcutaneous single dose, blood glucose 0-10 hours, AUC, vs PBS control; FIG. 1. In kind it is in vivo. The protocol:
db/db mice were housed in animal feeding rooms with strictly controlled environmental conditions. The temperature in the feeding room was maintained at 20-24° C. and the humidity was maintained at 40-70%. The temperature and humidity of the feeding room were monitored in real time by a temperature and humidity meter, and the temperature and humidity were recorded twice a day (once in the morning and once in the afternoon). The lighting in the animal feeding room was controlled by an electronic timing light-on system. The lights were turned on for 12 hours and turned off for 12 hours every day (on at 7:00 in the morning and off at 19:00 in the afternoon). During the experiment, the mice were individually housed in each cage, and toys were provided to the mice in each cage. During the experiment mice had free access to water. The db/db male mice (6 weeks old) were given one week to acclimate to the environmental conditions of the test facility. Baseline blood glucose and body weight were recorded for three days before the test (−3 day to −1 day). The mice were randomly grouped based on three-day blood glucose and body weight, with 6 mice in each group. The mice were injected subcutaneously with PBS (5 ml/kg, control group) or the peptide compounds 1, 2, 8, 16, 18, 19, 24, and 36 (30 nmol/kg) respectively at 10:00 am. Blood was collected at 0 hour before drug administration, and 1, 2, 4, 6, 8 and 10 hours after administration, and blood glucose was measured using a OneTouch glucose meter (Johnson & Johnson) and test strips. Blood glucose curves were plotted with time as the abscissa and the blood glucose value at different time point as the ordinate, the areas under the curve (AUC) were calculated, and the hypoglycemic effects and duration of time of the peptide compounds were compared.
For “Y(aib)EGTFTSDLSI(aib)LEKEAVRLFIEWLLAGGPSSGAPPPS-NH2 (YXEGTFTSDLSIXLEKEAVRLFIEWLLAGGPSSGAPPPS; Aib; C-terminal amide; MOD_RES (2)..(2) X=aminoisobutyric aicd; MOD_RES (13)..(13) X=aminoisobutyric aicd; MOD_RES (39)..(39) AMIDATION, C-termianl amidation) [Compound 36]”, the blood glucose entry was “significantly reduce blood glucose”.

For “Y(aib)EGTFTSDLSIQLEKEAARLFIEWLLAGGPSSGAPPPS-NH2 (Y[Aib]EGTFTSDLSIQLEKEAARLFIEWLLAGGPSSGAPPPS-NH2; N-terminus assumed; SMILES CC[C@H](C)[C@H](NC(=O)[C@H](Cc1ccccc1)NC(=O)[C@H](CC(C)C)NC(=O)[C@H](CCCNC(=N)N)NC(=O)[C@H](C)NC(=O)[C@H](C)NC(=O)[C@H](CCC(=O)O)NC(=O)[C@H](CCCCN)NC(=O)[C@H](CCC(=O)O)NC(=O)[C@H](CC(C)C)NC(=O)[C@H](CCC(N)=O)NC(=O)[C@@H](NC(=O)[C@H](CO)NC(=O)[C@H](CC(C)C)NC(=O)[C@H](CC(=O)O)NC(=O)[C@H](CO)NC(=O)[C@@H](NC(=O)[C@H](Cc1ccccc1)NC(=O)[C@@H](NC(=O)CNC(=O)[C@H](CCC(=O)O)NC(=O)C(C)(C)NC(=O)[C@@H](N)Cc1ccc(O)cc1)[C@@H](C)O)[C@@H](C)O)[C@@H](C)CC)C(=O)N[C@@H](CCC(=O)O)C(=O)N[C@@H](Cc1c[nH]c2ccccc12)C(=O)N[C@@H](CC(C)C)C(=O)N[C@@H](CC(C)C)C(=O)N[C@@H](C)C(=O)NCC(=O)NCC(=O)N1CCC[C@H]1C(=O)N[C@@H](CO)C(=O)N[C@@H](CO)C(=O)NCC(=O)N[C@@H](C)C(=O)N1CCC[C@H]1C(=O)N1CCC[C@H]1C(=O)N1CCC[C@H]1C(=O)N[C@@H](CO)C(N)=O) [Compound 18]”, the blood glucose entry was “significantly reduce blood glucose”.

For “Y(aib)EGTFTSDLSIQLEKEAVKLFIEWLLAGGPSSGAPPPS-NH2 (Y[Aib]EGTFTSDLSIQLEKEAVKLFIEWLLAGGPSSGAPPPS-NH2; N-terminus assumed; SMILES CC[C@H](C)[C@H](NC(=O)[C@H](CO)NC(=O)[C@H](CC(C)C)NC(=O)[C@H](CC(=O)O)NC(=O)[C@H](CO)NC(=O)[C@@H](NC(=O)[C@H](Cc1ccccc1)NC(=O)[C@@H](NC(=O)CNC(=O)[C@H](CCC(=O)O)NC(=O)C(C)(C)NC(=O)[C@@H](N)Cc1ccc(O)cc1)[C@@H](C)O)[C@@H](C)O)C(=O)N[C@@H](CCC(N)=O)C(=O)N[C@@H](CC(C)C)C(=O)N[C@@H](CCC(=O)O)C(=O)N[C@@H](CCCCN)C(=O)N[C@@H](CCC(=O)O)C(=O)N[C@@H](C)C(=O)N[C@H](C(=O)N[C@@H](CCCCN)C(=O)N[C@@H](CC(C)C)C(=O)N[C@@H](Cc1ccccc1)C(=O)N[C@H](C(=O)N[C@@H](CCC(=O)O)C(=O)N[C@@H](Cc1c[nH]c2ccccc12)C(=O)N[C@@H](CC(C)C)C(=O)N[C@@H](CC(C)C)C(=O)N[C@@H](C)C(=O)NCC(=O)NCC(=O)N1CCC[C@H]1C(=O)N[C@@H](CO)C(=O)N[C@@H](CO)C(=O)NCC(=O)N[C@@H](C)C(=O)N1CCC[C@H]1C(=O)N1CCC[C@H]1C(=O)N1CCC[C@H]1C(=O)N[C@@H](CO)C(N)=O)[C@@H](C)CC)C(C)C) [Compound 24]”, the blood glucose result is “significantly reduce blood glucose”.

On to “Y(aib)EGTFTSDLSIQLEKEAVRLFIEWLLAGGPSSGAPPPS-NH2 (Y[Aib]EGTFTSDLSIQLEKEAVRLFIEWLLAGGPSSGAPPPS-NH2; N-terminus assumed; SMILES CC[C@H](C)[C@H](NC(=O)[C@H](CO)NC(=O)[C@H](CC(C)C)NC(=O)[C@H](CC(=O)O)NC(=O)[C@H](CO)NC(=O)[C@@H](NC(=O)[C@H](Cc1ccccc1)NC(=O)[C@@H](NC(=O)CNC(=O)[C@H](CCC(=O)O)NC(=O)C(C)(C)NC(=O)[C@@H](N)Cc1ccc(O)cc1)[C@@H](C)O)[C@@H](C)O)C(=O)N[C@@H](CCC(N)=O)C(=O)N[C@@H](CC(C)C)C(=O)N[C@@H](CCC(=O)O)C(=O)N[C@@H](CCCCN)C(=O)N[C@@H](CCC(=O)O)C(=O)N[C@@H](C)C(=O)N[C@H](C(=O)N[C@@H](CCCNC(=N)N)C(=O)N[C@@H](CC(C)C)C(=O)N[C@@H](Cc1ccccc1)C(=O)N[C@H](C(=O)N[C@@H](CCC(=O)O)C(=O)N[C@@H](Cc1c[nH]c2ccccc12)C(=O)N[C@@H](CC(C)C)C(=O)N[C@@H](CC(C)C)C(=O)N[C@@H](C)C(=O)NCC(=O)NCC(=O)N1CCC[C@H]1C(=O)N[C@@H](CO)C(=O)N[C@@H](CO)C(=O)NCC(=O)N[C@@H](C)C(=O)N1CCC[C@H]1C(=O)N1CCC[C@H]1C(=O)N1CCC[C@H]1C(=O)N[C@@H](CO)C(N)=O)[C@@H](C)CC)C(C)C) [Compound 19]”, for which the blood glucose result was “significantly reduce blood glucose”.

In the case of “Y(aib)EGTFTSDYSIYLDEEAVKLFVNWLIAGGPSSGAPPPS-NH2 (Y[Aib]EGTFTSDYSIYLDEEAVKLFVNWLIAGGPSSGAPPPS-NH2; N-terminus assumed; SMILES CC[C@H](C)[C@H](NC(=O)[C@H](CC(C)C)NC(=O)[C@H](Cc1c[nH]c2ccccc12)NC(=O)[C@H](CC(N)=O)NC(=O)[C@@H](NC(=O)[C@H](Cc1ccccc1)NC(=O)[C@H](CC(C)C)NC(=O)[C@H](CCCCN)NC(=O)[C@@H](NC(=O)[C@H](C)NC(=O)[C@H](CCC(=O)O)NC(=O)[C@H](CCC(=O)O)NC(=O)[C@H](CC(=O)O)NC(=O)[C@H](CC(C)C)NC(=O)[C@H](Cc1ccc(O)cc1)NC(=O)[C@@H](NC(=O)[C@H](CO)NC(=O)[C@H](Cc1ccc(O)cc1)NC(=O)[C@H](CC(=O)O)NC(=O)[C@H](CO)NC(=O)[C@@H](NC(=O)[C@H](Cc1ccccc1)NC(=O)[C@@H](NC(=O)CNC(=O)[C@H](CCC(=O)O)NC(=O)C(C)(C)NC(=O)[C@@H](N)Cc1ccc(O)cc1)[C@@H](C)O)[C@@H](C)O)[C@@H](C)CC)C(C)C)C(C)C)C(=O)N[C@@H](C)C(=O)NCC(=O)NCC(=O)N1CCC[C@H]1C(=O)N[C@@H](CO)C(=O)N[C@@H](CO)C(=O)NCC(=O)N[C@@H](C)C(=O)N1CCC[C@H]1C(=O)N1CCC[C@H]1C(=O)N1CCC[C@H]1C(=O)N[C@@H](CO)C(N)=O) [Compound 2]”, the blood glucose entry is on record as “significantly reduce blood glucose”.

Regarding “Y(aib)EGTFTSDYSIYLDEEAVRLFVNWLIAGGPSSGAPPPS-NH2 (Y[Aib]EGTFTSDYSIYLDEEAVRLFVNWLIAGGPSSGAPPPS-NH2; N-terminus assumed; SMILES CC[C@H](C)[C@H](NC(=O)[C@H](CC(C)C)NC(=O)[C@H](Cc1c[nH]c2ccccc12)NC(=O)[C@H](CC(N)=O)NC(=O)[C@@H](NC(=O)[C@H](Cc1ccccc1)NC(=O)[C@H](CC(C)C)NC(=O)[C@H](CCCNC(=N)N)NC(=O)[C@@H](NC(=O)[C@H](C)NC(=O)[C@H](CCC(=O)O)NC(=O)[C@H](CCC(=O)O)NC(=O)[C@H](CC(=O)O)NC(=O)[C@H](CC(C)C)NC(=O)[C@H](Cc1ccc(O)cc1)NC(=O)[C@@H](NC(=O)[C@H](CO)NC(=O)[C@H](Cc1ccc(O)cc1)NC(=O)[C@H](CC(=O)O)NC(=O)[C@H](CO)NC(=O)[C@@H](NC(=O)[C@H](Cc1ccccc1)NC(=O)[C@@H](NC(=O)CNC(=O)[C@H](CCC(=O)O)NC(=O)C(C)(C)NC(=O)[C@@H](N)Cc1ccc(O)cc1)[C@@H](C)O)[C@@H](C)O)[C@@H](C)CC)C(C)C)C(C)C)C(=O)N[C@@H](C)C(=O)NCC(=O)NCC(=O)N1CCC[C@H]1C(=O)N[C@@H](CO)C(=O)N[C@@H](CO)C(=O)NCC(=O)N[C@@H](C)C(=O)N1CCC[C@H]1C(=O)N1CCC[C@H]1C(=O)N1CCC[C@H]1C(=O)N[C@@H](CO)C(N)=O) [Compound 1]”, the blood glucose result was “significantly reduce blood glucose”.

As to “Y(aib)EGTFTSDYSIYLEKEAVRLFIEWLIAGGPSSGAPPPS-NH2 (Y[Aib]EGTFTSDYSIYLEKEAVRLFIEWLIAGGPSSGAPPPS-NH2; N-terminus assumed; SMILES CC[C@H](C)[C@H](NC(=O)[C@H](CC(C)C)NC(=O)[C@H](Cc1c[nH]c2ccccc12)NC(=O)[C@H](CCC(=O)O)NC(=O)[C@@H](NC(=O)[C@H](Cc1ccccc1)NC(=O)[C@H](CC(C)C)NC(=O)[C@H](CCCNC(=N)N)NC(=O)[C@@H](NC(=O)[C@H](C)NC(=O)[C@H](CCC(=O)O)NC(=O)[C@H](CCCCN)NC(=O)[C@H](CCC(=O)O)NC(=O)[C@H](CC(C)C)NC(=O)[C@H](Cc1ccc(O)cc1)NC(=O)[C@@H](NC(=O)[C@H](CO)NC(=O)[C@H](Cc1ccc(O)cc1)NC(=O)[C@H](CC(=O)O)NC(=O)[C@H](CO)NC(=O)[C@@H](NC(=O)[C@H](Cc1ccccc1)NC(=O)[C@@H](NC(=O)CNC(=O)[C@H](CCC(=O)O)NC(=O)C(C)(C)NC(=O)[C@@H](N)Cc1ccc(O)cc1)[C@@H](C)O)[C@@H](C)O)[C@@H](C)CC)C(C)C)[C@@H](C)CC)C(=O)N[C@@H](C)C(=O)NCC(=O)NCC(=O)N1CCC[C@H]1C(=O)N[C@@H](CO)C(=O)N[C@@H](CO)C(=O)NCC(=O)N[C@@H](C)C(=O)N1CCC[C@H]1C(=O)N1CCC[C@H]1C(=O)N1CCC[C@H]1C(=O)N[C@@H](CO)C(N)=O) [Compound 16]”, the blood glucose result is “significantly reduce blood glucose”.

For the origin of these results see patent US12612441B2, “Polypeptide and therapeutic uses thereof” (Vitalixir (Beijing) Co., Ltd, priority 2019, dated 2026).
